Measured values reported in US20110124634A1, “BIOACTIVE COMPOUNDS FOR TREATMENT OF CANCER AND NEURODEGENERATIVE DISEASES” (PONIARD PHARMACEUTICALS, INC., priority 2008, published 2011).
pIC50: −log10 of the molar value.

Key:
Assay type in all cases: cell-based
BT474 = assay: MTS assay (cytotoxicity), growth inhibition of BT474; settings: Homo sapiens, BT-474, 120 h, Table 5, series III, 5 days, read-out: Growth Inhibition (IC50) BT474
Description: (§1) Cells were seeded in 96-well plates at 2000 cells/well in a final culture volume of 100 ul for 24 hours before the addition of 25 ul of increasing concentrations of inhibitors that was incubated for 5 days. Viable cell number was determined using the CellTiter 96 AQueous One Solution Cell Proliferation Assay (Promega). Plates were read at 490 nm absorbance 2-4 hours after addition of the MTS reagent using a multiwell plate spectrophotometer. Background was determined by measuring the Abs 490 nm of cell culture medium and MTS in the absence of cells. The background value was subtracted from all values. Absorbance 490 nm values for each inhibitor were plotted against the log 10 inhibitor concentration, and IC50 values were calculated using a nonlinear least-square curve fitting program in Prism 5.

HT29 = assay: MTS assay (cytotoxicity), growth inhibition of HT29; settings: Homo sapiens, HT-29, 120 h, Table 5, series III, 5 days, read-out: Growth Inhibition (IC50) HT29
Description: as §1

SKBR-3 = assay: MTS assay (cytotoxicity), growth inhibition of SKBR-3; settings: Homo sapiens, SK-BR-3, 120 h, Table 5, series III, 5 days, read-out: Growth Inhibition (IC50) SKBR-3
Description: as §1

[1] = tested on: HSP90 client protein Her2 in SKBR-3 cells; assay: Her-2 degradation assay (Her-2 ELISA) in SKBr-3 cells; settings: Homo sapiens, SK-BR-3, Table 5, series III, 18 hours
Description: Most of the compounds synthesized were evaluated for their ability to induce degradation of the HSP90 client protein Her2 in SKBR-3 cells. Selected compounds were evaluated in a fluorescence polarization (FP) assay for their affinity to HSP90.
SKBr-3 cells grown in McCoy's 5a Medium supplemented with 10% fetal bovine serum (FBS) were plated into 12-well plates at 50% confluency. Increasing concentrations of inhibitors were added 24 hours later (cells are 65-70% confluent) and incubated overnight for 18 hours. The wells were washed with 2 ml of phosphate buffered saline (PBS), and 50 ul of trypsin was added to each well. After trypsinization was complete, 150 ul of FBS was added to each well. Then 200 ul of cells were transferred to 96-well plates and plates were centrifuged at 1200 rpm for 2 minutes using a tabletop centrifuge. The cells were washed once with 250 ul PBS before being lysed with 100 ul of 50 mM Tris (pH 7.4), 0.1% NP-40 lysis buffer. Protein concentrations of clarified lysates were determined using the BCA Assay (Calbiochem) according to the manufacturer's instructions. 2 ug of each lysate was analyzed in the human sp 185 Her-2 ELISA (Bender Medsystems) according to the manufacturer's instructions. ELISA plates were read at 450 nm using a multiwell plate spectrophotometer. Background was determined by measuring the Abs 450 nm of wells with no lysate added. The background value was subtracted from all values. Absorbance 450 nm values for each inhibitor were plotted against the log 10 inhibitor concentration, and IC50 values were calculated using a nonlinear least-square curve fitting program in Prism 5.

MCF-7 = assay: MTS assay (cytotoxicity), growth inhibition of MCF-7; settings: Homo sapiens, MCF7, 120 h, Table 5, series III, 5 days, read-out: Growth Inhibition (IC50) MCF-7
Description: as §1

SMILES | pIC50 [1] | pIC50 (BT474) | pIC50 (HT29) | pIC50 (SKBR-3) | pIC50 (MCF-7)
COc1c(C)cnc(CN2C(=O)/C(=C\c3cc(C(=O)NCCCN4CCCC4)c[nH]3)c3c(Cl)nc(N)nc32)c1C [III-28, (Z)-5-((2-Amino-4-chloro-7-((4-methoxy-3,5-dimethylpyridin-2-yl)methyl)-6-oxo-6,7-dihydro-5H-pyrrolo[2,3-d]pyrimidin-5-ylidene)methyl)-N-(3-(pyrrolidin-1-yl)propyl)-1H-pyrrole-3-carboxamide] | 6.96 | 7.70 | 7.30 | 7.40 | 6.05
COc1c(C)cnc(CN2C(=O)/C(=C\c3[nH]ncc3Br)c3c(Cl)nc(N)nc32)c1C [III-10, (Z)-2-Amino-5-((4-bromo-1H-pyrazol-5-yl)methylene)-4-chloro-7-((4-methoxy-3,5-dimethylpyridin-2-yl)methyl)-5H-pyrrolo[2,3-d]pyrimidin-6(7H)-one] | 6.55 | 6.49 | 6.32 | 6.77 | 5.90
CCN(CC)CCNC(=O)c1c[nH]c(/C=C2\C(=O)N(Cc3cc(C)n(C)n3)c3nc(N)nc(Cl)c32)c1 [III-59, (Z)-5-((2-Amino-4-chloro-7-((1,5-dimethyl-1H-pyrazol-3-yl)methyl)-6-oxo-6,7-dihydro-5H-pyrrolo[2,3-d]pyrimidin-5-ylidene)methyl)-N-(2-(diethylamino)ethyl)-1H-pyrrole-3-carboxamide] | 7.00 | 6.80 | 6.49 | 7.22 | 5.77
COc1c(C)cnc(CN2C(=O)/C(=C\c3cc4c([nH]3)CCC=C4Cl)c3c(Cl)nc(N)nc32)c1C [III-7, 2-Amino-4-chloro-5-[1-(4-chloro-6,7-dihydro-1H-indol-2-yl)-meth-(Z)-ylidene]-7-(4-methoxy-3,5-dimethyl-pyridin-2-ylmethyl)-5,7-dihydro-pyrrolo[2,3-d]pyrimidin-6-one] | 5.18 | 5.33 | 5.70 | 5.24 | 5.27
COc1c(C)cnc(CN2C(=O)/C(=C\c3ccc[nH]3)c3c(Cl)nc(N)nc32)c1C [III-1, 2-Amino-4-chloro-7-(4-methoxy-3,5-dimethyl-pyridin-2-ylmethyl)-5-[1-(1H-pyrrol-2-yl)-meth-(Z)-ylidene]-5,7-dihydro-pyrrolo[2,3-d]pyrimidin-6-one] | 7.05 | 7.52 | 7.52 | 7.05 | 7.05
COc1c(C)cnc(CN2C(=O)/C(=C\c3cc(C(=O)N(CCO)CCO)c[nH]3)c3c(Cl)nc(N)nc32)c1C [III-27, (Z)-5-((2-Amino-4-chloro-7-((4-methoxy-3,5-dimethylpyridin-2-yl)methyl)-6-oxo-6,7-dihydro-5H-pyrrolo[2,3-d]pyrimidin-5-ylidene)methyl)-N,N-bis(2-hydroxyethyl)-1H-pyrrole-3-carboxamide] | 6.89 | 7.10 | 6.89 | 7.30 | 6.48
COc1c(C)cnc(CN2C(=O)/C(=C\c3nc(NC(=O)C4CCOCC4)c[nH]3)c3c(Cl)nc(N)nc32)c1C [III-75, (Z)-N-(2-((2-Amino-4-chloro-7-((4-methoxy-3,5-dimethylpyridin-2-yl)methyl)-6-oxo-6,7-dihydro-5H-pyrrolo[2,3-d]pyrimidin-5-ylidene)methyl)-1H-imidazol-4-yl)tetrahydro-2H-pyran-4-carboxamide] | 7.05 | 7.22 | 7.30 | 8.15 | 6.80
COc1c(C)cnc(CN2C(=O)/C(=C\c3ccc(C(=O)C(F)(F)F)[nH]3)c3c(Cl)nc(N)nc32)c1C [III-8, 2-Amino-4-chloro-7-(4-methoxy-3,5-dimethyl-pyridin-2-ylmethyl)-5-[1-[5-(2,2,2-trifluoro-acetyl)-1H-pyrrol-2-yl]-meth-(Z)-ylidene]-5,7-dihydro-pyrrolo[2,3-d]pyrimidin-6-one] | 6.82 | 6.33 | 5.88 | 6.82 | 6.09
COc1c(C)cnc(CN2C(=O)/C(=C\c3cc(C(=O)CN4CCC(C(F)(F)F)CC4)c[nH]3)c3c(Cl)nc(N)nc32)c1C [III-94] | 7.10 | 6.10 | 6.46 | 7.05 | 6.41
COC(=O)c1ccc(/C=C2\C(=O)N(Cc3ncc(C)c(OC)c3C)c3nc(N)nc(Cl)c32)[nH]1 [III-5, 5-[2-Amino-4-chloro-7-(4-methoxy-3,5-dimethyl-pyridin-2-ylmethyl)-6-oxo-6,7-dihydro-pyrrolo[2,3-d]pyrimidin-(5Z)-ylidenemethyl]-1H-pyrrole-2-carboxylic acid methyl ester] | 6.32 | 6.68 | 6.25 | 6.64 | 6.02

More lines, in order of rising pIC50 [1], values ahead:

pIC50 [1] | SMILES | pIC50 (BT474) | pIC50 (HT29) | pIC50 (SKBR-3) | pIC50 (MCF-7)
7.10 | COc1c(C)cnc(CN2C(=O)/C(=C\c3cc(C(=O)NCC(O)CO)c[nH]3)c3c(Cl)nc(N)nc32)c1C (stereo not drawn) [III-22, (Z)-5-((2-Amino-4-chloro-7-((4-methoxy-3,5-dimethylpyridin-2-yl)methyl)-6-oxo-6,7-dihydro-5H-pyrrolo[2,3-d]pyrimidin-5-ylidene)methyl)-N-(2,3-dihydroxypropyl)-1H-pyrrole-3-carboxamide] | 6.96 | 6.44 | 7.10 | 6.40
7.22 | COc1c(C)cnc(CN2C(=O)/C(=C\c3cc(C(C)(C)C)n[nH]3)c3c(Cl)nc(N)nc32)c1C [III-52, (Z)-2-Amino-5-((3-tert-butyl-1H-pyrazol-5-yl)methylene)-4-chloro-7-((4-methoxy-3,5-dimethylpyridin-2-yl)methyl)-5H-pyrrolo[2,3-d]pyrimidin-6(7H)-one] | 6.39 | 6.62 | 6.85 | 6.72
7.22 | COc1c(C)cnc(CN2C(=O)/C(=C\c3cc(C(=O)NCCNC(C)C)c[nH]3)c3c(Cl)nc(N)nc32)c1C [III-21, (Z)-5-((2-Amino-4-chloro-7-((4-methoxy-3,5-dimethylpyridin-2-yl)methyl)-6-oxo-6,7-dihydro-5H-pyrrolo[2,3-d]pyrimidin-5-ylidene)methyl)-N-(2-(isopropylamino)ethyl)-1H-pyrrole-3-carboxamide] | 8.00 | 7.22 | 8.40 | 6.82
7.40 | CCN(CC)CCNC(=O)c1c(C)[nH]c(/C=C2\C(=O)N(Cc3ncc(C)c(OC)c3C)c3nc(N)nc(Cl)c32)c1C [III-102, (Z)-5-((2-Amino-4-chloro-7-((4-methoxy-3,5-dimethylpyridin-2-yl)methyl)-6-oxo-6,7-dihydro-5H-pyrrolo[2,3-d]pyrimidin-5-ylidene)methyl)-N-(2-(diethylamino)ethyl)-2,4-dimethyl-1H-pyrrole-3-carboxamide] | 7.15 | 7.52 | 8.00 | 4.67
8.30 | COc1c(C)cnc(CN2C(=O)/C(=C\c3cc(C(=O)NCCN4CCCC4)c[nH]3)c3c(Cl)nc(N)nc32)c1C [III-26, (Z)-5-((2-Amino-4-chloro-7-((4-methoxy-3,5-dimethylpyridin-2-yl)methyl)-6-oxo-6,7-dihydro-5H-pyrrolo[2,3-d]pyrimidin-5-ylidene)methyl)-N-(2-(pyrrolidin-1-yl)ethyl)-1H-pyrrole-3-carboxamide] | 9.00 | 9.22 | > 9.70 | 7.52
